Columns and labels:
thrombin formation = test: Inhibition of thrombin formation (prothrombin fragment F1+2) in hirudin-anticoagulated plasma after activation by kaolin; format: biochemical, human; details: 37° C.
Description: In this example thrombin formation was activated in plasma anticoagulated with hirudin by the addition of kaolin and the ability of the inhibitors to inhibit thrombin formation was examined.
Blood sampled from a patient was initially anticoagulated by means of the thrombin inhibitor hirudin. For this purpose 9 parts of blood were mixed with 1 part of hirudin solution (recombinant hirudin HBW 023, Hoechst, Frankfurt, 2000 E/ml of physiological NaCl solution), then centrifuged for 10 minutes at 1300 revolutions per minute (rpm). 900 μl of the plasma anticoagulated with hirudin, present in excess, were mixed in polypropylene tubes with 50 μl of inhibitor solution or 0.9% NaCl solution and 50 μl kaolin suspension (from APTT-Test from Roche Diagnostics, diluted 1:250 before use with physiological NaCl solution), and incubated at 37° C. with light shaking. In this case kaolin acts as a non-physiological surface which activates the blood coagulation thereby finally stimulating thrombin formation. At certain times the quantity of the thrombin formed was determined immunologically on the basis of the formation of the prothrombin fragment F1+2 (Enzygnost F1+2 micro, Dade Behring GmbH, Marburg). This determination is based on an enzyme immunoassay according to the sandwich principle. For this purpose aliquot volumes (600 μl) were anticoagulated at certain times with 0.1 M EDTA (40 μl) and kept at −20° C. To determine the concentration of the prothrombin fragment F1+2 50 μl of plasma (if necessary diluted with PBS, phosphate-buffered saline) were incubated with monoclonal antibodies against the human prothrombin fragment F1+2, which were fixed on a microtitre plate included in the test kit. After a washing stage with PBS, which was used to remove sample material not bound by the antibodies, antibodies conjugated with peroxidase were incubated against human prothrombin binding to the free F1+2 determinants. […] This was then determined photometrically at a wavelength of 492 nm. […]

Factor XIa = target: T1, Factor XIa (Homo sapiens, UniProt P03951); test: Determination of Ki values, chromogenic substrate, Dixon evaluation: Factor XIa; format: biochemical; details: 25° C., tris buffer pH 8.0, substrate H-D-Lys(Cbo)-Pro-Arg-pNA
T1 construct: purchased Haemochrom Diagnostica GmbH (Essen, D)
From the text: The inhibitors used here are the commercially available exemplary inhibitors Pefabloc tPA/Xa (2,7-bis(4-amidinobenzylidene)-cyclopeptanone-(1), Pentapharm Ltd. Basel, Switzerland), CJ-FXa (benzylsulphonyl-D-arginyl-glycyl-4-amidinobenzylamide, Haemochrom GmbH, Essen, Germany) and CJ-PK (benzylsulphonyl-D-seryl-carbobenzoxylsyl-4-amidinobenzylamide, Haemochrom GmbH, Essen, Germany). Research samples were available of DX-9065a ((+)-(2S)-2-[4-[[3S)-1-acetimidoyl-3-pyrrodinyl]oxy]phenyl]-3-[7-amidino-2-naphthyl]propanic acid, Daiichi Pharmaceutical Company Ltd., Tokyo, Japan), and Otamixaban (2-(R)-(3-carbamimidoylbenyzyl)-3-(R)-[4-(1-oxypyridin-4-yl)benzoylamino]-butyric acid-methylester, Sanofi-Aventis GmbH, Frankfurt, Germany), both of which are undergoing clinical tests. In order to examine the inhibitory action of these exemplarily used inhibitors on the blood coagulation factors plasma-kallikrein, VIIa, Xa, XIa and XIIa, the Ki values of the respective enzyme-inhibitor complexes were determined.
The enzymes were produced by Haemochrom Diagnostica GmbH (Essen, D) and were dissolved in 0.154 mol/l NaCl. The substrates (Pentapharm AG, Basel, CH) were dissolved in H2O and the inhibitor was dissolved in the above-mentioned tris buffer. The following substrates were used for the individual enzymes:
(§1) 200 μl of inhibitor solution were mixed with 25 μl of substrate for the determination and the reaction was started by the addition of 50 μl of enzyme. After a reaction time of 3-5 mins. 25 μl of acetic acid (50%) were added and the extinction was measured at 405 nm with a microplate reader (iEMS Reader MF 12401, Labsystems, Helsinki, Finland). The evaluation was carried out graphically according to Dixon (Biochem. J., 55, 170, 1953).
The enzymes were produced by Haemochrom Diagnostica GmbH (Essen, D), and only thrombin was manufactured in our own laboratory according to Walsmann (Pharmazie 23, 401-402, 1968). All the enzymes were dissolved in 0.154 mol/l NaCl. The substrates (Pentapharm AG, Basel, CH) were dissolved in H2O and the inhibitor was dissolved in the above-mentioned tris buffer. The following substrates were used for the individual enzymes:
as §1, with “1401,” for “12401,”

T1 sequence (P03951 388-625 limits assumed): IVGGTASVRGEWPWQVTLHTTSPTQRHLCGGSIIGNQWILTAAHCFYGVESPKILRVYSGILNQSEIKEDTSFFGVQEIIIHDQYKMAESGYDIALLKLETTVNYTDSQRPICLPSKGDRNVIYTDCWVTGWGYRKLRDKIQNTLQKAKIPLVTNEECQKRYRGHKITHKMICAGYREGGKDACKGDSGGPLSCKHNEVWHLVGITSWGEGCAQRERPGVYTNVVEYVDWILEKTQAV
T1 sequence (P03951 19-387 partner limits assumed): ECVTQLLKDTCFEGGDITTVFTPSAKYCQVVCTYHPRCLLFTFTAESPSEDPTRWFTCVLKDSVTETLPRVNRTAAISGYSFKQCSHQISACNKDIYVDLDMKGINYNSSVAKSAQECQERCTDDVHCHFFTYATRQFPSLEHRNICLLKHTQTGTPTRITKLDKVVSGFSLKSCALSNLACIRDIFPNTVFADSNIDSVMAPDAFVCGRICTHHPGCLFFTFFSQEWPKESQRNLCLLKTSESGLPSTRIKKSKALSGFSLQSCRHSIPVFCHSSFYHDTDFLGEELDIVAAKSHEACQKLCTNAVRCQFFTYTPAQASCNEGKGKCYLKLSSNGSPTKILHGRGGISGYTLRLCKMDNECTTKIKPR

**Q.** With `N=C(N)c1ccc(C=C2CCCCC(=Cc3ccc(C(=N)N)cc3)C2=O)cc1` [Pefabloc tPA/Xa, 2,7-bis(4-amidinobenzylidene)-cycloheptanone-(1)] as the molecule, how does the “suppression of thrombin formation after kaolin activation” value (thrombin formation; inhibitor 100 μM) read?
**A.** totally suppressing thrombin formation

**Q.** And the Ki (Factor XIa)?
**A.** 42 µM

**Q.** What does the source list for `COC(=O)[C@H](Cc1cccc(C(=N)N)c1)[C@@H](C)NC(=O)c1ccc(-c2cc[n+]([O-])cc2)cc1` (mixture of isomers) [Otamixaban, 2-(R)-(3-carbamimidoylbenyzyl)-3-(R)-[4-(1-oxypyridin-4-yl)benzoylamino]-butyric acid-methylester]?
**A.** suppression/blocking of thrombin formation after kaolin activation (thrombin formation; concentration not stated in the sentence (FIGS. 1-3, 6)): particularly suitable for blocking thrombin formation; Ki (Factor XIa): 23 µM
